Experimental data: patent publication US20160041146A1 (priority 2014, published 2016)
Where two headings read alike, the source gives them in different places.

Assay type: in vivo, human
Details: for Urine concentration (median): 50 subjects; for μA, population mean of ln(PMET/SMET), ratio of primary (parent) to secondary metabolite concentration in urine: large batch of historical UDT patient data (for quetiapine: model A), the σA is the standard deviation
Source text: Determining the amount of a drug in fluid of the subject may be accomplished by use of any method known to those skilled in the art. Non-limiting examples for determining the amount of a drug in fluid of a subject include fluorescence polarization immunoassay (“FPIA,” Abbott Diagnostics), mass spectrometry (MS), gas chromatography-mass spectrometry (GC-MS-MS), liquid chromatography-mass spectrometry (LC-MS-MS), and the like. In one embodiment, LC-MS-MS methods known to those skilled in the art are used to determine a raw level, amount or concentration of a drug in urine of the subject. In one embodiment, a raw level or concentration of a drug in urine of a subject is measured and reported as a ratio, percent, or in relationship to the amount of fluid. The amount of fluid may be expressed as a unit volume, for example, in L, mL, μL, pL, ounce, etc. In one embodiment, the raw amount of a drug in urine of a subject may be expressed as an absolute level or value, for example, in g, mg, μg, ng, pg, etc.
In an embodiment, the raw primary metabolite and secondary metabolite concentrations measured in urine of the subject are transformed and normalized (hereafter “Equation 3”): […]
where ln is the natural log, PMET is the concentration of the primary metabolite also referred to as the parent drug in […]; and SMET is the concentration of the secondary metabolite in […]. The value is then transformed into its corresponding value on the standard normal (e.g., Gaussian) distribution using (hereafter “Equation 4): […]
where NORMSTD(RATIO) is the standardized normal value (also referred to herein as the Z-score) and μA and σA are the mean and the standard deviation respectively of the population used to construct the model described in Equation 3. The resulting mean and standard deviation of the standardized normal distribution, NORMSTD(RATIO), are “0” and “1” respectively.
The Data Sets used to establish the ratio models were cleaned as detailed below and the resulting information used only considered patients who tested positive for the primary and secondary metabolite of interest and were prescribed the drug of interest. Furthermore, to ensure integrity of the data only patients with qualifying sample validity test information (sample pH and sample creatinine level), as described in detail in other embodiments were included in the model. […] Consequently, all patients were included in the model regardless of whether their illicit drug test was positive or negative.
Once the patient(s) meet acceptable Sample Validity test results and non-zero values, expected values based on the model can be calculated using the models described below (Equation 3 and Equation 4 detailed in other embodiments).

[1] = Oxycodone model population, approximately 48,800 patient results over one year, average daily dosage 36 mg
[2] = patient validity data set for Oxycodone model, average oxycodone dosage 24 mg
[3] = patient validity data set for Alprazolam model, average alprazolam dosage 2.26 mg
[4] = patient validity data set for Quetiapine models, average quetiapine dosage 299 mg

## CN1CC[C@]23c4c5ccc(O)c4O[C@H]2C(=O)CC[C@@]3(O)[C@H]1C5 [oxymorphone]
[1]
  median urine drug concentration: 1248 ng/mL
[2]
  Urine concentration (median): 1579 ng/mL

## COc1ccc2c3c1O[C@H]1C(=O)CC[C@H]4[C@@H](C2)N(C)CC[C@]314 [hydrocodone]
Hydrocodone model population, approximately 84,000 patient results over one year, average daily dosage 32 mg
  median urine drug concentration: 1395 ng/mL
  μA, population mean of ln(PMET/SMET), ratio of primary (parent) to secondary metabolite concentration in urine: 0.996
Patient validity data set for Hydrocodone model, average hydrocodone dosage 26 mg
  Urine concentration (median): 1428 ng/mL

## Cc1nnc2n1-c1ccc(Cl)cc1C(c1ccccc1)=NC2 [alprazolam]
  μA, population mean of ln(PMET/SMET), ratio of primary (parent) to secondary metabolite concentration in urine: −0.463
[3]
  Urine concentration (median): 118 ng/mL

## OCCOCCN1CCN(C2=Nc3ccc(O)cc3Sc3ccccc32)CC1 [7-hydroxyquetiapine]
Alprazolam model population, approximately 256,000 patient results over nine years, average daily dosage 3 mg
  median urine drug concentration: 329 ng/mL
Quetiapine model A population, approximately 5,455 patient results collected over three years, average daily dosage 229 mg
  median urine drug concentration: 95 ng/mL
Quetiapine model B population, approximately 236 patient results, six month clinical trial, average daily dosage 310 mg
  median urine drug concentration: 55 ng/mL
[4]
  Urine concentration (median): 62 ng/mL

## OCCOCCN1CCN(C2=Nc3ccccc3Sc3ccccc32)CC1 [quetiapine]
[4]
  Urine concentration (median): 69 ng/mL

## COc1ccc2c3c1O[C@H]1C(=O)CC[C@@]4(O)[C@@H](C2)N(C)CC[C@]314 [oxycodone]
[1]
  median urine drug concentration: 1421 ng/mL
  μA, population mean of ln(PMET/SMET), ratio of primary (parent) to secondary metabolite concentration in urine: −0.083
[2]
  Urine concentration (median): 1509 ng/mL

## OCc1nnc2n1-c1ccc(Cl)cc1C(c1ccccc1)=NC2 [alpha-hydroxyalprazolam]
[3]
  Urine concentration (median): 265 ng/mL
